# What was measured:
# [1] = target: GDP-bound NRAS wild-type protein (Homo sapiens, UniProt P01111); experiment: Binding to NRAS by surface plasmon resonance (SPR), Single Cycle Kinetics; conditions: SPR; KD ratio class
# [2] = test system: human lung cancer strain NCI-H441; experiment: cells; conditions: NCI-H441, 96 h, read-out: NCI-H441 IC50 (nM)
# [3] = target: GDP-bound HRAS wild-type protein (Homo sapiens, UniProt P01112); experiment: Binding to HRAS by surface plasmon resonance (SPR), Single Cycle Kinetics; conditions: SPR; KD ratio class
# Sequence of GDP-bound HRAS wild-type protein (P01112 whole entry): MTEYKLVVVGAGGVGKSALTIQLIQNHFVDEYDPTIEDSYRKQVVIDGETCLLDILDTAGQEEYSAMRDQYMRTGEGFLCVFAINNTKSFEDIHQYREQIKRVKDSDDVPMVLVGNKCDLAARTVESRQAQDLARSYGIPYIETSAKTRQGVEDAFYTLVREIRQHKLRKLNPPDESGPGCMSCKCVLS
# Sequence of GDP-bound NRAS wild-type protein (P01111 whole entry): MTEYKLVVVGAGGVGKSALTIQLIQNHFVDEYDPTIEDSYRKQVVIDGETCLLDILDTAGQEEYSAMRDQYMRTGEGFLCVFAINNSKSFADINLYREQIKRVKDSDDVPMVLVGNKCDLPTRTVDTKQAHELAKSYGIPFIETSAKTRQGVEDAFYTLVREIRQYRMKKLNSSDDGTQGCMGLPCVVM
Compound,IC50 [2],NRAS/KRAS (ratio of KD value for GDP-bound NRAS wild-type protein to KD value for KRAS) [1],HRAS/KRAS (ratio of KD value for GDP-bound HRAS wild-type protein to KD value for KRAS) [3]
CCO[C@@H]1C[C@H]2C(=O)NC3(CCC3)C(=O)N(C)[C@@H](C3CCCC3)C(=O)N(C)[C@H](C(=O)N(C)C)CC(=O)N(C)[C@@H](CC3CCCC3)C(=O)N[C@@H]([C@@H](C)CC)C(=O)N(C)CC(=O)N(C)[C@H]3C/C=C\CCN(C3=O)[C@@H](Cc3ccc(F)cc3)C(=O)N(C)CC(=O)N[C@@H](CCc3ccc4sccc4c3)C(=O)N2C1 [PP1390],305 nM,A (a compound having 10 or more and less than 20 is denoted as A),A (a compound having 10 or more and less than 20 is denoted as A)
CCO[C@@H]1C[C@H]2C(=O)NC3(CCC3)C(=O)N(C)[C@@H](C3CCCC3)C(=O)N(C)[C@H](C(=O)N3CCOCC3)CC(=O)N(C)[C@@H](CC3CCCC3)C(=O)N[C@@H]([C@@H](C)CC)C(=O)N(C)CC(=O)N(C)[C@H]3C/C=C\CCN(C3=O)[C@@H](Cc3ccc(C(F)(F)F)cc3)C(=O)N(C)CC(=O)N[C@@H](CCc3cc(F)c(C(F)(F)F)c(F)c3)C(=O)N2C1 [PP1393],18.2 nM,A (a compound having 10 or more and less than 20 is denoted as A),A (a compound having 10 or more and less than 20 is denoted as A)
CCO[C@@H]1C[C@H]2C(=O)NC3(CCC3)C(=O)N(C)[C@@H](C3CCCC3)C(=O)N(C)[C@H](C(=O)N3CCOCC3)CC(=O)N(C)[C@@H](CC3CCCC3)C(=O)N[C@@H]([C@@H](C)CC)C(=O)N(C)CC(=O)N(C)[C@H]3C/C=C\CCN(C3=O)[C@@H](Cc3ccc(C)cc3)C(=O)N(C)CC(=O)N[C@@H](CCc3cc(F)c(C(F)(F)F)c(F)c3)C(=O)N2C1 [PP1394],25.1 nM,AA (a compound having 20 or more is denoted as AA),A (a compound having 10 or more and less than 20 is denoted as A)
CC[C@H](C)[C@@H]1NC(=O)[C@H](CC2CC2)N(C)C(=O)C[C@@H](C(=O)N(C)C)N(C)C(=O)[C@H](C2CCCC2)N(C)C(=O)C2(CCC2)NC(=O)[C@H](CCC(F)F)N(C)C(=O)[C@H](CCc2cc(F)c(C(F)(F)F)c(F)c2)NC(=O)CN(C)C(=O)[C@H](Cc2ccc(C(F)(F)F)cc2)N2CC/C=C\C[C@@H](C2=O)N(C)C(=O)CN(C)C1=O [PP1402],82 nM,A (a compound having 10 or more and less than 20 is denoted as A),A (a compound having 10 or more and less than 20 is denoted as A)
CC[C@H](C)[C@@H]1NC(=O)[C@H](CC2CC2)N(C)C(=O)C[C@@H](C)N(C)C(=O)[C@H](C2CCCC2)N(C)C(=O)C2(CCC2)NC(=O)[C@H](CCC(F)F)N(C)C(=O)[C@H](CCc2cc(F)c(C(F)(F)F)c(F)c2)NC(=O)CN(C)C(=O)[C@H](Cc2ccc(C(F)(F)F)cc2)N2CC/C=C\C[C@@H](C2=O)N(C)C(=O)CN(C)C1=O [PP1404],498 nM,A (a compound having 10 or more and less than 20 is denoted as A),A (a compound having 10 or more and less than 20 is denoted as A)
CCO[C@@H]1C[C@H]2C(=O)NC3(CCC3)C(=O)N(C)[C@@H](C3CCCC3)C(=O)N(C)[C@H](C(=O)N3CCOCC3)CC(=O)N(C)[C@@H](CC3CC3)C(=O)N[C@@H]([C@@H](C)CC)C(=O)N(C)CC(=O)N(C)[C@H]3C/C=C\CCN(C3=O)[C@@H](Cc3ccc(C)cc3)C(=O)N(C)CC(=O)N[C@@H](CCc3cc(F)c(C(F)(F)F)c(F)c3)C(=O)N2C1 [PP1408],37.6 nM,A (a compound having 10 or more and less than 20 is denoted as A),A (a compound having 10 or more and less than 20 is denoted as A)
CCO[C@@H]1C[C@H]2C(=O)NC3(CCC3)C(=O)N(C)[C@@H](C3CCCC3)C(=O)N(C)[C@H](C(=O)N3CCCC3)CC(=O)N(C)[C@@H](CC3CC3)C(=O)N[C@@H]([C@@H](C)CC)C(=O)N(C)CC(=O)N(C)[C@H]3C/C=C\CCN(C3=O)[C@@H](Cc3ccc(C)cc3)C(=O)N(C)CC(=O)N[C@@H](CCc3cc(F)c(C(F)(F)F)c(F)c3)C(=O)N2C1 [PP1409],43.5 nM,A (a compound having 10 or more and less than 20 is denoted as A),A (a compound having 10 or more and less than 20 is denoted as A)
CCO[C@@H]1C[C@H]2C(=O)NC3(CCC3)C(=O)N(C)[C@@H](C3CCCC3)C(=O)N(C)[C@H](C)CC(=O)N(C)[C@@H](CC3CC3)C(=O)N[C@@H]([C@@H](C)CC)C(=O)N(C)CC(=O)N(C)[C@H]3C/C=C\CCN(C3=O)[C@@H](Cc3ccc(C)cc3)C(=O)N(C)CC(=O)N[C@@H](CCc3cc(F)c(C(F)(F)F)c(F)c3)C(=O)N2C1 [PP1410],51 nM,B (a compound having 3 or more and less than 10 is denoted as B),B (a compound having 3 or more and less than 10 is denoted as B)
CCO[C@@H]1C[C@H]2C(=O)NC3(CCC3)C(=O)N(C)[C@@H](C3CCCC3)C(=O)N(C)[C@H](C(=O)N3CCCC3)CC(=O)N(C)[C@@H](CC3CCCC3)C(=O)N[C@@H]([C@@H](C)CC)C(=O)N(C)CC(=O)N(C)[C@H]3C/C=C\CCN(C3=O)[C@@H](Cc3ccc(C)cc3)C(=O)N(C)CC(=O)N[C@@H](CCc3cc(F)c(C(F)(F)F)c(F)c3)C(=O)N2C1 [PP1412],23 nM,A (a compound having 10 or more and less than 20 is denoted as A),A (a compound having 10 or more and less than 20 is denoted as A)

# Further molecules by falling IC50 [2], results first:
IC50 [2],Compound,NRAS/KRAS (ratio of KD value for GDP-bound NRAS wild-type protein to KD value for KRAS) [1],HRAS/KRAS (ratio of KD value for GDP-bound HRAS wild-type protein to KD value for KRAS) [3]
466 nM,CC[C@H](C)[C@@H]1NC(=O)[C@H](CC2CC2)N(C)C(=O)C[C@@H](C)N(C)C(=O)[C@H](C2CCCC2)N(C)C(=O)C2(CCC2)NC(=O)[C@H](CC(F)F)N(C)C(=O)[C@H](CCc2cc(F)c(C(F)(F)F)c(F)c2)NC(=O)CN(C)C(=O)[C@H](Cc2ccc(C(F)(F)F)cc2)N2CC/C=C\C[C@@H](C2=O)N(C)C(=O)CN(C)C1=O [PP1405],A (a compound having 10 or more and less than 20 is denoted as A),A (a compound having 10 or more and less than 20 is denoted as A)
271 nM,CCO[C@@H]1C[C@H]2C(=O)NC3(CCC3)C(=O)N(C)[C@@H](C3CCCC3)C(=O)N(C)[C@H](C(=O)N3CCCC3)CC(=O)N(C)[C@@H](CC3CCCC3)C(=O)N[C@@H]([C@@H](C)CC)C(=O)N(C)CC(=O)N(C)[C@H]3C/C=C\CCN(C3=O)[C@@H](Cc3ccc(F)cc3)C(=O)N(C)CC(=O)N[C@@H](CCc3ccc4sccc4c3)C(=O)N2C1 [PP1391],A (a compound having 10 or more and less than 20 is denoted as A),A (a compound having 10 or more and less than 20 is denoted as A)
111 nM,CC[C@H](C)[C@@H]1NC(=O)[C@H](CC2CC2)N(C)C(=O)C[C@@H](C(=O)N(C)C)N(C)C(=O)[C@H](C2CCCC2)N(C)C(=O)C2(CCC2)NC(=O)[C@H](CC(F)F)N(C)C(=O)[C@H](CCc2cc(F)c(C(F)(F)F)c(F)c2)NC(=O)CN(C)C(=O)[C@H](Cc2ccc(C(F)(F)F)cc2)N2CC/C=C\C[C@@H](C2=O)N(C)C(=O)CN(C)C1=O [PP1403],AA (a compound having 20 or more is denoted as AA),A (a compound having 10 or more and less than 20 is denoted as A)
34.4 nM,CCCOC[C@H]1C(=O)N[C@@H]([C@@H](C)CC)C(=O)N(C)CC(=O)N(C)[C@H]2C/C=C\CCN(C2=O)[C@@H](Cc2ccc(C)cc2)C(=O)N(C)CC(=O)N[C@@H](CCc2cc(F)c(C(F)(F)F)c(F)c2)C(=O)N2C[C@H](OCC)C[C@H]2C(=O)NC2(CCCC2)C(=O)N(C)[C@@H](C2CCCC2)C(=O)N(C)[C@H](C(=O)N2CCCC2)CC(=O)N1C [PP1401],A (a compound having 10 or more and less than 20 is denoted as A),A (a compound having 10 or more and less than 20 is denoted as A)
18.8 nM,CCCOC[C@H]1C(=O)N[C@@H]([C@@H](C)CC)C(=O)N(C)CC(=O)N(C)[C@H]2C/C=C\CCN(C2=O)[C@@H](Cc2ccc(C(F)(F)F)cc2)C(=O)N(C)CC(=O)N[C@@H](CCc2cc(F)c(C(F)(F)F)c(F)c2)C(=O)N2C[C@H](OCC)C[C@H]2C(=O)NC2(CCCC2)C(=O)N(C)[C@@H](C2CCCC2)C(=O)N(C)[C@H](C(=O)N2CCCC2)CC(=O)N1C [PP1399],A (a compound having 10 or more and less than 20 is denoted as A),A (a compound having 10 or more and less than 20 is denoted as A)

# Reference: US20250230193A1, “CYCLIC COMPOUND HAVING SELECTIVE KRAS INHIBITORY EFFECT ON HRAS AND NRAS” (CHUGAI SEIYAKU KABUSHIKI KAISHA, priority 2022, published 2025)
